Data published in article PMC5218480 (PLoS ONE, 2017).

System: MV-4-11 cells
Assay: Gene expression microarray analysis (Affymetrix PrimeView) and GSEA
Type: cell-based, human
Design: RFU PODN (11730768_x_at) / Fold change /veh PODN (11730768_x_at) / RFU LINC00158 (11744669_a_at) / Fold change /veh LINC00158 (11744669_a_at) / RFU DUSP10 (11751237_a_at) / Fold change /veh DUSP10 (11751237_a_at) / RFU ID3 (11757404_x_at) / Fold change /veh ID3 (11757404_x_at) / RFU PLEKHG5 (11737974_s_at) / Fold change /veh PLEKHG5 (11737974_s_at) / RFU LRRC4B (11730491_at) / Fold change /veh LRRC4B (11730491_at) / RFU GIMAP4 (11747438_a_at) / Fold change /veh GIMAP4 (11747438_a_at) / RFU KRT8 (11758183_x_at) / Fold change /veh KRT8 (11758183_x_at) / RFU CNN1 (11734310_a_at) / Fold change /veh CNN1 (11734310_a_at) / RFU VPS37D (11726825_at) / Fold change /veh VPS37D (11726825_at) / RFU C10orf10 (11716522_x_at) / Fold change /veh C10orf10 (11716522_x_at) / RFU KIR2DL2 /// KIR2DL4 /// KIR2DL5A /// KIR2DL5B /// KIR2DS1 /// KIR2DS2 /// KIR2DS3 /// KIR2DS4 /// KIR3DL3 /// KIR3DL3 /// KIR3DS1 (11738374_at) / Fold change /veh KIR2DL2 /// KIR2DL4 /// KIR2DL5A /// KIR2DL5B /// KIR2DS1 /// KIR2DS2 /// KIR2DS3 /// KIR2DS4 /// KIR3DL3 /// KIR3DL3 /// KIR3DS1 (11738374_at) / RFU C1QL1 (11718748_at) / Fold change /veh C1QL1 (11718748_at) / RFU TMPRSS4 (11747572_a_at) / Fold change /veh TMPRSS4 (11747572_a_at) / RFU HAMP (11756126_x_at) / Fold change /veh HAMP (11756126_x_at) / RFU RNFT2 (11725882_a_at) / Fold change /veh RNFT2 (11725882_a_at) / RFU NR4A2 (11747474_a_at) / Fold change /veh NR4A2 (11747474_a_at) / RFU ABCC12 (11746883_a_at) / Fold change /veh ABCC12 (11746883_a_at) / RFU TMEM136 (11760407_x_at) / Fold change /veh TMEM136 (11760407_x_at) / RFU CLDN22 /// WWC2 (11732394_at) / Fold change /veh CLDN22 /// WWC2 (11732394_at) / RFU HLA-DPB1 (11760878_x_at) / Fold change /veh HLA-DPB1 (11760878_x_at) / RFU SPINT1 (11716480_a_at) / Fold change /veh SPINT1 (11716480_a_at) / RFU GAP43 (11754022_s_at) / Fold change /veh GAP43 (11754022_s_at) / RFU A4GNT (11735810_at) / Fold change /veh A4GNT (11735810_at) / RFU PRB3 (11715151_x_at) / Fold change /veh PRB3 (11715151_x_at) / RFU TUBB4B (11761932_at) / Fold change /veh TUBB4B (11761932_at) / RFU CAPN14 (11732068_a_at) / Fold change /veh CAPN14 (11732068_a_at) / RFU TMCC2 (11721928_a_at) / Fold change /veh TMCC2 (11721928_a_at) / RFU IRGQ (11745062_a_at) / Fold change /veh IRGQ (11745062_a_at) / RFU FAM174B (11720279_a_at) / Fold change /veh FAM174B (11720279_a_at) / RFU TMPRSS4 (11748680_a_at) / Fold change /veh TMPRSS4 (11748680_a_at) / RFU FAM212B (11763350_a_at) / Fold change /veh FAM212B (11763350_a_at) / RFU PLEKHG5 (11743358_a_at) / Fold change /veh PLEKHG5 (11743358_a_at) / RFU ZSCAN30 (11745921_a_at) / Fold change /veh ZSCAN30 (11745921_a_at) / RFU CMKLR1 (11741424_a_at) / Fold change /veh CMKLR1 (11741424_a_at) / RFU LOC101060620 /// MAPK8IP1 (11723275_at) / Fold change /veh LOC101060620 /// MAPK8IP1 (11723275_at) / RFU SPTSSB (11747773_x_at) / Fold change /veh SPTSSB (11747773_x_at) / RFU PRSS12 (11739890_at) / Fold change /veh PRSS12 (11739890_at) / RFU BIN1 (11741810_x_at) / Fold change /veh BIN1 (11741810_x_at) / RFU WNT11 (11732464_a_at) / Fold change /veh WNT11 (11732464_a_at) / RFU C10orf10 (11716521_a_at) / Fold change /veh C10orf10 (11716521_a_at) / RFU C5orf56 (11738089_at) / Fold change /veh C5orf56 (11738089_at) / RFU CYB561 (11721691_x_at) / Fold change /veh CYB561 (11721691_x_at) / RFU ANKRD19P (11752326_a_at) / Fold change /veh ANKRD19P (11752326_a_at) / RFU OR2T12 /// OR2T33 /// OR2T8 (11738714_s_at) / Fold change /veh OR2T12 /// OR2T33 /// OR2T8 (11738714_s_at) / RFU VCAN (11748164_a_at) / Fold change /veh VCAN (11748164_a_at) / RFU JSRP1 (11732532_at) / Fold change /veh JSRP1 (11732532_at) / RFU KRTAP10-11 (11738290_x_at) / Fold change /veh KRTAP10-11 (11738290_x_at) / RFU MYO3A (11730013_a_at) / Fold change /veh MYO3A (11730013_a_at) / RFU EBF3 (11725865_a_at) / Fold change /veh EBF3 (11725865_a_at) / RFU CAMK2N1 (11719241_x_at) / Fold change /veh CAMK2N1 (11719241_x_at) / RFU C5orf56 (11738088_a_at) / Fold change /veh C5orf56 (11738088_a_at) / RFU OLFML3 (11715873_a_at) / Fold change /veh OLFML3 (11715873_a_at) / RFU LOC100653217 /// NTM (11731650_a_at) / Fold change /veh LOC100653217 /// NTM (11731650_a_at) / RFU MAPK11 (11762145_a_at) / Fold change /veh MAPK11 (11762145_a_at) / RFU FIZ1 (11724087_x_at) / Fold change /veh FIZ1 (11724087_x_at) / RFU OASL (11726364_x_at) / Fold change /veh OASL (11726364_x_at) / RFU SOX15 (11748057_x_at) / Fold change /veh SOX15 (11748057_x_at) / RFU CD79A (11719716_a_at) / Fold change /veh CD79A (11719716_a_at) / RFU HIST1H1D (11736915_at) / Fold change /veh HIST1H1D (11736915_at) / RFU CASKIN2 (11723855_a_at) / Fold change /veh CASKIN2 (11723855_a_at) / RFU LOC730098 (11760151_x_at) / Fold change /veh LOC730098 (11760151_x_at) / RFU OR4N2 (11742367_at) / Fold change /veh OR4N2 (11742367_at) / RFU PRRT2 (11749266_a_at) / Fold change /veh PRRT2 (11749266_a_at) / RFU SNX32 (11753110_a_at) / Fold change /veh SNX32 (11753110_a_at) / RFU CDHR5 (11726645_a_at) / Fold change /veh CDHR5 (11726645_a_at) / RFU RCAN1 (11760418_a_at) / Fold change /veh RCAN1 (11760418_a_at) / RFU FAM167A (11723789_a_at) / Fold change /veh FAM167A (11723789_a_at) / RFU FAM26E (11764081_at) / Fold change /veh FAM26E (11764081_at) / RFU ISYNA1 (11749810_s_at) / Fold change /veh ISYNA1 (11749810_s_at) / RFU ACY1 (11761880_at) / Fold change /veh ACY1 (11761880_at) / RFU 11764098_at / Fold change /veh 11764098_at / RFU SAMD14 (11745864_x_at) / Fold change /veh SAMD14 (11745864_x_at) / RFU NPB (11741838_a_at) / Fold change /veh NPB (11741838_a_at) / RFU TMPRSS6 (11731388_a_at) / Fold change /veh TMPRSS6 (11731388_a_at) / RFU KRTAP10-2 (11738614_at) / Fold change /veh KRTAP10-2 (11738614_at) / RFU ARHGAP8 /// PRR5-ARHGAP8 (11727945_x_at) / Fold change /veh ARHGAP8 /// PRR5-ARHGAP8 (11727945_x_at) / RFU KRTAP5-7 /// NADSYN1 (11734609_at) / Fold change /veh KRTAP5-7 /// NADSYN1 (11734609_at) / RFU RASL12 (11751679_a_at) / Fold change /veh RASL12 (11751679_a_at) / RFU CDKN2B (11736163_a_at) / Fold change /veh CDKN2B (11736163_a_at) / RFU PRF1 (11729649_at) / Fold change /veh PRF1 (11729649_at) / RFU, ZNF638 /// ZNF638-IT1 / Fold change vs veh, ZNF638 /// ZNF638-IT1 / RFU, PANK3 / Fold change vs veh, PANK3 / RFU, SH3YL1 / Fold change vs veh, SH3YL1 / RFU, ZEB2 / Fold change vs veh, ZEB2 / RFU, NRIP1 / Fold change vs veh, NRIP1 / RFU, PTTG1IP / Fold change vs veh, PTTG1IP / RFU, CAPN2 / Fold change vs veh, CAPN2 / RFU, MED14 / Fold change vs veh, MED14 / RFU, SNORA58 / Fold change vs veh, SNORA58 / RFU, C1orf63 / Fold change vs veh, C1orf63 / RFU, LRRFIP1 / Fold change vs veh, LRRFIP1 / RFU, NDUFAF7 / Fold change vs veh, NDUFAF7 / RFU, SLC12A2 / Fold change vs veh, SLC12A2 / RFU, IBTK / Fold change vs veh, IBTK / RFU, ESF1 / Fold change vs veh, ESF1 / Fold change vs veh, TMEM50B / RFU, TAOK1 / Fold change vs veh, TAOK1 / RFU, ACBD3 / Fold change vs veh, ACBD3 / RFU, TMA16 / Fold change vs veh, TMA16 / RFU, RWDD3 / Fold change vs veh, RWDD3 / RFU, BCAT1 / Fold change vs veh, BCAT1 / RFU, EDEM3 / Fold change vs veh, EDEM3 / RFU, TMEM33 / Fold change vs veh, TMEM33 / RFU, WDR75 / Fold change vs veh, WDR75 / RFU, AHCTF1 / Fold change vs veh, AHCTF1 / RFU, TFRC / Fold change vs veh, TFRC / RFU, ZDHHC17 / Fold change vs veh, ZDHHC17 / RFU, NOM1 / Fold change vs veh, NOM1 / RFU, ARL8B / Fold change vs veh, ARL8B / RFU, ZBTB11 / Fold change vs veh, ZBTB11 / RFU, TAMM41 / Fold change vs veh, TAMM41 / RFU, KIAA1704 /// LOC100996395 / Fold change vs veh, KIAA1704 /// LOC100996395 / RFU, ING1 / Fold change vs veh, ING1 / RFU, TRMT61B / Fold change vs veh, TRMT61B / RFU, FUBP3 / Fold change vs veh, FUBP3 / RFU, TP53 / Fold change vs veh, TP53 / RFU, TNKS2 / Fold change vs veh, TNKS2 / RFU, ZFP14 / Fold change vs veh, ZFP14 / RFU, ACTR2 / Fold change vs veh, ACTR2 / RFU, PPP3R1 / Fold change vs veh, PPP3R1 / RFU, PIK3R1 / Fold change vs veh, PIK3R1 / RFU, HNRNPA1 / Fold change vs veh, HNRNPA1 / RFU, RNF170 / Fold change vs veh, RNF170 / RFU, ZNF28 / Fold change vs veh, ZNF28 / RFU, RNGTT / Fold change vs veh, RNGTT / RFU, OGT / Fold change vs veh, OGT / RFU, BRD1 / Fold change vs veh, BRD1 / RFU, MARS / Fold change vs veh, MARS / RFU, ZNF655 / Fold change vs veh, ZNF655 / RFU, FAHD1 / Fold change vs veh, FAHD1 / RFU, BDP1 / Fold change vs veh, BDP1 / RFU, LRRCC1 / Fold change vs veh, LRRCC1 / RFU, ARID1A / Fold change vs veh, ARID1A / RFU, ZNF146 / Fold change vs veh, ZNF146 / RFU, ZNF330 / Fold change vs veh, ZNF330 / RFU, GPN3 / Fold change vs veh, GPN3 / RFU, C9orf123 / Fold change vs veh, C9orf123 / RFU, N4BP2L2 / Fold change vs veh, N4BP2L2 / RFU, ARFIP1 / Fold change vs veh, ARFIP1 / RFU, FAM179B / Fold change vs veh, FAM179B / RFU, BCL10 / Fold change vs veh, BCL10 / RFU, UHRF1BP1L / Fold change vs veh, UHRF1BP1L / RFU, BET1 / Fold change vs veh, BET1 / RFU, CNOT2 / Fold change vs veh, CNOT2 / RFU, ZNF268 / Fold change vs veh, ZNF268 / Fold change vs veh, ZNF507 / RFU, DGCR2 / Fold change vs veh, DGCR2 / RFU, WDSUB1 / Fold change vs veh, WDSUB1 / Fold change vs veh, HSP90B1 /// MIR3652 / RFU, ADSS / Fold change vs veh, ADSS / RFU, GK / Fold change vs veh, GK / RFU, ZNF148 / Fold change vs veh, ZNF148 / RFU, TAF9 / Fold change vs veh, TAF9 / RFU, SLC1A5 / Fold change vs veh, SLC1A5 / RFU, SLMO2 / Fold change vs veh, SLMO2 / RFU, ABCC4 / Fold change vs veh, ABCC4 / RFU, LOC101060439 /// RAP1B / Fold change vs veh, LOC101060439 /// RAP1B / RFU, RFX7 / Fold change vs veh, RFX7 / RFU, GTPBP10 / Fold change vs veh, GTPBP10 / RFU, CNEP1R1 / Fold change vs veh, CNEP1R1 / RFU, BIVM-ERCC5 /// ERCC5 / Fold change vs veh, BIVM-ERCC5 /// ERCC5 / RFU, ILF3 / Fold change vs veh, ILF3 / RFU 11762660_at / Fold change /veh 11762660_at / RFU VCAN (11757783_s_at) / Fold change /veh VCAN (11757783_s_at) / RFU DDX43 (11728927_at) / Fold change /veh DDX43 (11728927_at) / RFU KRT8 (11758188_x_at) / Fold change /veh KRT8 (11758188_x_at) / RFU NKD1 (11759106_at) / Fold change /veh NKD1 (11759106_at) / RFU SRD5A1 (11742802_a_at) / Fold change /veh SRD5A1 (11742802_a_at) / RFU TPSAB1 /// TPSB2 (11721975_s_at) / Fold change /veh TPSAB1 /// TPSB2 (11721975_s_at) / RFU GSTM3 (11746129_a_at) / Fold change /veh GSTM3 (11746129_a_at) / RFU IL23R (11737362_x_at) / Fold change /veh IL23R (11737362_x_at) / RFU TMEM51 (11727254_a_at) / Fold change /veh TMEM51 (11727254_a_at) / RFU PIWIL2 (11732686_x_at) / Fold change /veh PIWIL2 (11732686_x_at) / RFU ORM1 (11744905_x_at) / Fold change /veh ORM1 (11744905_x_at) / RFU CCDC152 (11743942_at) / Fold change /veh CCDC152 (11743942_at) / RFU ECM1 (11717891_a_at) / Fold change /veh ECM1 (11717891_a_at) / RFU IL23R (11748794_a_at) / Fold change /veh IL23R (11748794_a_at) / RFU TNFAIP8L3 (11732012_x_at) / Fold change /veh TNFAIP8L3 (11732012_x_at) / RFU MBOAT4 (11741988_at) / Fold change /veh MBOAT4 (11741988_at) / RFU 11764193_at / Fold change /veh 11764193_at / RFU TMEM53 (11763286_at) / Fold change /veh TMEM53 (11763286_at) / RFU MAGEB2 (11727129_at) / Fold change /veh MAGEB2 (11727129_at) / RFU TMEM200A (11744735_a_at) / Fold change /veh TMEM200A (11744735_a_at) / RFU CCDC152 (11751479_a_at) / Fold change /veh CCDC152 (11751479_a_at) / RFU FAM211A (11726209_a_at) / Fold change /veh FAM211A (11726209_a_at) / RFU RGS16 (11746705_a_at) / Fold change /veh RGS16 (11746705_a_at) / RFU VCAN (11755009_s_at) / Fold change /veh VCAN (11755009_s_at) / RFU RHOB (11743442_s_at) / Fold change /veh RHOB (11743442_s_at) / RFU RGS16 (11720943_a_at) / Fold change /veh RGS16 (11720943_a_at) / RFU RGS16 (11720944_at) / Fold change /veh RGS16 (11720944_at) / RFU, VPS4B / Fold change vs veh, VPS4B / RFU, CREB1 / Fold change vs veh, CREB1 / RFU, DNAJC13 / Fold change vs veh, DNAJC13 / RFU, GNAQ / Fold change vs veh, GNAQ / RFU, CDK5R1 / Fold change vs veh, CDK5R1 / RFU, ZRANB3 / Fold change vs veh, ZRANB3 / RFU, CUL4A / Fold change vs veh, CUL4A / RFU, CCNY / Fold change vs veh, CCNY / RFU, UFL1 / Fold change vs veh, UFL1 / RFU, COG3 / Fold change vs veh, COG3 / RFU, DIAPH2 / Fold change vs veh, DIAPH2 / RFU, SKA2 / Fold change vs veh, SKA2 / RFU, AFF3 / Fold change vs veh, AFF3 / RFU, LMF1 / Fold change vs veh, LMF1 / RFU, IPO11 / Fold change vs veh, IPO11 / RFU, DFFB / Fold change vs veh, DFFB / RFU, FOXP1 / Fold change vs veh, FOXP1 / RFU, CARD8 / Fold change vs veh, CARD8 / RFU, STRN3 / Fold change vs veh, STRN3 / RFU, ADK / Fold change vs veh, ADK / RFU, RASSF2 / Fold change vs veh, RASSF2 / RFU, WIPF1 / Fold change vs veh, WIPF1 / RFU, LARP1B / Fold change vs veh, LARP1B / RFU, RASA1 / Fold change vs veh, RASA1 / RFU, RB1 / Fold change vs veh, RB1 / RFU, PPFIA1 / Fold change vs veh, PPFIA1 / RFU, MAT2A / Fold change vs veh, MAT2A / RFU, CCT5 / Fold change vs veh, CCT5 / RFU, WDR92 / Fold change vs veh, WDR92 / RFU, CUX1 / Fold change vs veh, CUX1 / RFU, TTC7A / Fold change vs veh, TTC7A / RFU, TMEM135 / Fold change vs veh, TMEM135 / RFU, DEPTOR / Fold change vs veh, DEPTOR / RFU, CPM / Fold change vs veh, CPM / RFU, DNAJB6 / Fold change vs veh, DNAJB6 / RFU, CACNA2D3 / Fold change vs veh, CACNA2D3 / RFU, DTX4 / Fold change vs veh, DTX4 / RFU, TFCP2 / Fold change vs veh, TFCP2 / RFU, GMCL1 /// GMCL1P1 / Fold change vs veh, GMCL1 /// GMCL1P1 / RFU, AEBP2 / Fold change vs veh, AEBP2 / RFU, SNHG1 /// SNORD22 /// SNORD25 /// SNORD26 /// SNORD27 /// SNORD28 /// SNORD29 /// SNORD31 / Fold change vs veh, SNHG1 /// SNORD22 /// SNORD25 /// SNORD26 /// SNORD27 /// SNORD28 /// SNORD29 /// SNORD31 / Fold change (Aza/veh), C12orf56 (ProbeSet 11735607_a_at) / Fold change (ACY-1035/veh), C12orf56 (ProbeSet 11735607_a_at) / Fold change (Aza/veh), FGFR1OP (ProbeSet 11751329_s_at) / Fold change (ACY-1035/veh), FGFR1OP (ProbeSet 11751329_s_at) / Fold change (Aza/veh), VPS36 (ProbeSet 11739960_a_at) / Fold change (ACY-1035/veh), VPS36 (ProbeSet 11739960_a_at) / RFU SYPL1 (11715823_x_at) / Fold change /veh SYPL1 (11715823_x_at) / RFU IGFBP7 (11715501_s_at) / Fold change /veh IGFBP7 (11715501_s_at) / RFU REEP3 (11722064_at) / Fold change /veh REEP3 (11722064_at) / RFU IGLL1 (11728026_x_at) / Fold change /veh IGLL1 (11728026_x_at): dose or concentration left out as unconfirmed
Conditions: MV-4-11 cells, 48 hours

Nc1ncn([C@@H]2O[C@H](CO)[C@@H](O)[C@H]2O)c(=O)n1 [azacitidine]
RFU 11764098_at: 18.12 RFU
